Where two headings read alike, the source gives them in different places. Marks after values point to notes of the source that are not given here.
Legend:
mice = assay: Biological Example 5: acute toxicity experiment of single oral administration in mice; format: in vivo; details: single oral 1000 mg/Kg, Mean ± SD
Experimental: The mice were fasted one day before the experiment. On the day of the experiment, 6 mice (ICR mice, body weight of 19-21 g, three females and three males) were selected in each experiment group. First of all, one female and one male were selected to orally give 1000 mg/Kg, and observed for 5-10 minutes. If there were no obvious side effects, the remaining 4 animals were orally given the same dose, and observed for 10-15 minutes. If no animal died, the animals were placed in a box to balancedly feed for 7 days. The state was observed and the body weight was recorded daily.
Observation Indexes within 0-15 Minutes after Administration
Activity: restlessness, hyperactivity
Nervous system response: tremor, spasm, convulsion, ataxia, posture abnormality, etc.
Autonomic nerve: exophthalmos, salivation, tears, urination (hematuria), diarrhea, piloerection, breathing, etc.
State of Animal: lethargy, hyperactivity, excitement, hair loss, diarrhea, abnormal behavior, death, etc.

[1] = test system: DNBS-Induced Inflammatory Bowel Disease Models in Rats; assay: Biological Example 4: DNBS-induced inflammatory bowel disease models in rats; format: in vivo, Wistar rats; details: 30 mg/Kg i.g. qd × 7; for Adhesion Degree of Colon / Colon weight to length ratio / Ulcer area of colon / inhibition in vivo at 30 mg/kg: day 7; for Body weight: Mean ± SD; for inhibition in vivo at 30 mg/kg: Rattus norvegicus, po, 168 h
Experimental: 102 male Wistar rats were fasted for 72 hours. A 5% glucose injection was administered subcutaneously twice during fasting. 88 rats with normal conditions and moderate body weight were selected from the fasting rats. The animals were randomly divided into 11 groups according to the body weight (see Table 11. Grouped Table).
The animals were anesthetized with ether after 72 hours fasting. A specially made gavage device was slowly inserted into the enteric cavity at 8 cm from the anus. The model control group and each test group were administered with 0.5 mL of 50 mg/mL DNBS in 30% ethanol solution. The normal control group was administered with 0.5 mL of 30% ethanol solution. The animals were inverted in anesthesia for 15 minutes. The day when the model was prepared was day 0 of the experiment. After 4 hours of DNBS induction, the corresponding drug or the corresponding volume of 1% CMC-Na was administered once per day. On day 7 of the experiment, the animals were euthanized to score the colon adhesion degree, measure the length of colon and ulcer area, weigh colon and calculate the colon weight to length ratio.
One-way ANOVA analysis of the length of colon and colon weight per length of rats was performed by SPSS22. Statistical analyses between groups were performed. The adhesion degree was scored. Mann-Whitney U non-parametric test was performed on ulcer area. Statistical analyses between groups were performed.
Calculation Formula of Inhibitory rate of weight increase per length: (Colon weight to length ratio in model group−Colon weight to length ratio in administration group)/(Colon weight to length ratio in model group−Colon weight to length ratio in blank group)

[2] = read-out: Inhibitory rate of colon adhesion
[3] = read-out: Inhibitory rate of ulcer area of colon
[4] = read-out: Inhibitory rate of weight increase per length

Structure (SMILES)	Daily Body Weight (mice; Female mice, Day 1) [g]	Daily Body Weight (mice; Female mice, Day 2) [g]	Daily Body Weight (mice; Female mice, Day 3) [g]	Daily Body Weight (mice; Female mice, Day 4) [g]	Daily Body Weight (mice; Female mice, Day 5) [g]	Daily Body Weight (mice; Female mice, Day 6) [g]	Daily Body Weight (mice; Female mice, Day 7) [g]	Daily Body Weight (mice; Male mice, Day 1) [g]	Daily Body Weight (mice; Male mice, Day 2) [g]	Daily Body Weight (mice; Male mice, Day 3) [g]	Daily Body Weight (mice; Male mice, Day 4) [g]	Daily Body Weight (mice; Male mice, Day 5) [g]	Daily Body Weight (mice; Male mice, Day 6) [g]	Daily Body Weight (mice; Male mice, Day 7) [g]	Adhesion Degree of Colon [1] [point]	Colon weight to length ratio [1] [mg/cm]	Ulcer area of colon [1]	Body weight ([1]; Day 1) [g]	Body weight ([1]; Day 2) [g]	Body weight ([1]; Day 3) [g]	also measured
COCCN1C(=O)CCC(N2C(=O)c3cccc(O)c3C2=O)C1=O (stereo not drawn) [Example 23, 4-hydroxy-2-(1-(2-methoxyethyl)-2,6-dioxopiperidin-3-yl)isoindolin-1,3-dione]	19.1 ± 0.6	22.4 ± 0.4	23.0 ± 0.1	23.0 ± 0.1	24.6 ± 0.4	24.8 ± 0.7	24.6 ± 0.4	19.4 ± 0.8	24.6 ± 1.2	24.5 ± 0.6	24.5 ± 0.6	25.4 ± 1.2	28.1 ± 0.8	29.0 ± 0.8	0.8 ± 0.7	105 ± 12	0.2 ± 0.3# cm^2	126.6 ± 8.5	123.2 ± 9.0	123.9 ± 7.6	Body weight ([1]; Day 4): 136.5 ± 11.8 g; Body weight ([1]; Day 5): 148.1 ± 14.5 g; Body weight ([1]; Day 6): 152.1 ± 15.9 g; Body weight ([1]; Day 7): 166.8 ± 12.8 g; inhibition in vivo at 30 mg/kg [1, 2]: 62.2%; inhibition in vivo at 30 mg/kg [1, 3]: 91.7%; inhibition in vivo at 30 mg/kg [1, 4]: 67.1%
CNc1cccc2c1C(=O)N(C1CCC(=O)N(CCOC)C1=O)C2=O (stereo not drawn) [Example 2, 4-methylamino-2-(1-(2-methoxyethyl)-2,6-dioxopiperidin-3-yl)isoindolin-1,3-dione]	19.2 ± 0.5	22.7 ± 0.6	23.2 ± 0.5	23.2 ± 0.5	24.4 ± 0.2	24.6 ± 1.1	24.5 ± 1.9	18.6 ± 0.5	24.1 ± 0.4	24.7 ± 0.2	24.7 ± 0.2	26.2 ± 0.6	28.8 ± 0.5	29.2 ± 0.8	0.8 ± 0.9	120 ± 25	1.0 ± 1.6 cm^2	122.1 ± 4.6	123.0 ± 8.4	127.1 ± 11.3	Body weight ([1]; Day 4): 132.0 ± 12.4 g; Body weight ([1]; Day 5): 143.9 ± 11.9 g; Body weight ([1]; Day 6): 141.5 ± 11.5 g; Body weight ([1]; Day 7): 162.8 ± 15.8 g; inhibition in vivo at 30 mg/kg [1, 2]: 66.9%; inhibition in vivo at 30 mg/kg [1, 3]: 83.3%; inhibition in vivo at 30 mg/kg [1, 4]: 57.6%
COCCN1C(=O)CCC(N2C(=O)c3ccc(O)c(N)c3C2=O)C1=O (stereo not drawn) [Example 8, 4-amino-5-hydroxy-2-(1-(2-methoxyethyl)-2,6-dioxopiperidin-3-yl)isoindolin-1,3-dione]	18.9 ± 0.9	22.9 ± 0.9	24.3 ± 0.7	24.3 ± 1.1	25.3 ± 1.4	25.8 ± 1.5	26.0 ± 2.5	18.0 ± 1.3	23.1 ± 0.9	24.6 ± 1.0	25.6 ± 1.7	27.2 ± 2.2	28.2 ± 2.2	29.2 ± 2.6	0.9 ± 0.6	106 ± 13	0.2 ± 0.4 cm^2	128.6 ± 5.3	128.2 ± 9.2	131.6 ± 13.5	Body weight ([1]; Day 4): 136.8 ± 17.4 g; Body weight ([1]; Day 5): 149.1 ± 16.7 g; Body weight ([1]; Day 6): 149.7 ± 16.8 g; Body weight ([1]; Day 7): 164.1 ± 17.9 g; inhibition in vivo at 30 mg/kg [1, 2]: 52.7%; inhibition in vivo at 30 mg/kg [1, 3]: 91.7%; inhibition in vivo at 30 mg/kg [1, 4]: 65.9%

— patent publication US20220372013A2, “PIPERIDINE-2,6-DIONE DERIVATIVES AND CROHN'S DISEASE TREATING” (Tianjin Hemay Pharmaceutical Sci-Tech Co., Ltd, priority 2016, published 2022)
